From article PMC9693575, “Isopropyl Amino Acid Esters Ionic Liquids as Vehicles for Non-Steroidal Anti-Inflammatory Drugs in Potential Topical Drug Delivery Systems with Antimicrobial Activity” (International Journal of Molecular Sciences, 2022)

How the values were obtained:
[1] = system: Staphylococcus epidermidis; experiment: Disc diffusion antimicrobial susceptibility test, Staphylococcus epidermidis; format: cell-based; parameters: key to Inhibition diameter: -: no growth of the organism; conditions: for inhibition zone (in words): S. epidermidis, tested concentrations
Procedure: (§1) The plates were incubated for 24 h at 37 °C.

Micrococcus Luteus = experiment: Disc diffusion antimicrobial susceptibility test, Micrococcus luteus; format: cell-based; parameters: key to Inhibition diameter: -: no growth of the organism
Escherichia coli = experiment: Disc diffusion antimicrobial susceptibility test, Escherichia coli; format: cell-based; parameters: key to Inhibition diameter: -: no growth of the organism
Procedure: as §1

[2] = Thermogravimetric analysis (thermal stability); conditions: for TDTGmax, maximum decomposition temperature: DTG, air atmosphere, 10 °C min−1
Procedure: The thermal stabilities of the obtained NSAIDs isopropyl ester amino acid salts were investigated. […] The beginning of thermal degradation was evaluated based on the value of onset of the TG curve, which occurs in the first phase of the process. […]
Thermogravimetric analysis (TG)
Thermogravimetric analysis was carried out using Netzsch Proteus Thermal Analy- […]
Samples of 5–8 mg were loaded in Al2O3 […]
ment was performed in an air atmosphere (25 cm3min−1) with nitrogen flow (10 cm3min−1) […]
Differential scanning calorimetry (DSC)
Phase transformation temperatures were determined on a PerkinElmer DSC-7 (Rot-gau, Germany). The samples of 3–5 mg were loaded on the aluminum pan with a crimped lid. Measurements were carried out in a nitrogen atmosphere (20 cm3 min-1). The rate of heating/cooling was 5°C min-1. […]
tained for 30 min inside the furnace, then cooled to 0°C to condition the sample and the crucible. After that, heating was conducted to the specified temperature, followed by cool-ing. Unless otherwise stated, two complete cycles of heating and cooling were performed.
The specified maximum temperature was individual for each compound, determined from TG analysis, and it was at least 10°C lower than the onset decomposition tempera-ture. Temperatures reported from DSC data are curve peaks, the melting points being endothermic upon heating and crystallization point being exothermic upon cooling. Lead, indium, tin, and zinc were used as standards to calibrate the temperature. Indium was used for enthalpy measurement calibration. […]

[3] = solution transferred to disc 25 mg cm^−3
[4] = solution transferred to disc 50 mg cm^−3
[5] = solution transferred to disc 100 mg cm^−3
[6] = solution transferred to disc 200 mg cm^−3
[7] = solution transferred to disc 400 mg cm^−3
[8] = solution transferred to disc 600 mg cm^−3
[9] = solution transferred to disc 800 mg cm^−3
[10] = solution transferred to disc 1000 mg cm^−3

## CC(C(=O)O)c1cccc(C(=O)c2ccccc2)c1.CC(C)OC(=O)C(N)C(C)C (mixture of isomers) [[L-ValOiPr][KETO]]
[1]; [3]
  Inhibition diameter: -
[1]; [4]
  Inhibition diameter: -
[1]; [5]
  Inhibition diameter: -
[1]; [6]
  Inhibition diameter: -
[1]; [7]
  Inhibition diameter: 6.2 ± 0.1 mm
[1]; [8]
  Inhibition diameter: 6.3 ± 0.1 mm
[1]; [9]
  Inhibition diameter: 6.3 ± 0.2 mm
[1]; [10]
  Inhibition diameter: 6.9 ± 0.2 mm
Micrococcus Luteus; [3]
  Inhibition diameter: 6.3 ± 0.2 mm
Micrococcus Luteus; [4]
  Inhibition diameter: 7.4 ± 0.1 mm
Micrococcus Luteus; [5]
  Inhibition diameter: 8.5 ± 0.3 mm
Micrococcus Luteus; [6]
  Inhibition diameter: 9.1 ± 0.3 mm
Micrococcus Luteus; [7]
  Inhibition diameter: 10.3 ± 0.2 mm
Micrococcus Luteus; [8]
  Inhibition diameter: 11.7 ± 0.1 mm
Micrococcus Luteus; [10]
  Inhibition diameter: 15.1 ± 0.2 mm
Escherichia coli; [3]
  Inhibition diameter: -
Escherichia coli; [4]
  Inhibition diameter: -
Escherichia coli; [5]
  Inhibition diameter: -
Escherichia coli; [6]
  Inhibition diameter: 6.7 ± 0.3 mm
Escherichia coli; [7]
  Inhibition diameter: 7.0 ± 0.2 mm
Escherichia coli; [8]
  Inhibition diameter: 7.6 ± 0.3 mm
Escherichia coli; [10]
  Inhibition diameter: 8.3 ± 0.4 mm

## COc1ccc2cc([C@H](C)C(=O)O)ccc2c1.CSCC[C@H](N)C(=O)OC(C)C [[L-MetOiPr][NAP], L-methionine isopropyl ester naproxenate]
[1]; [3]
  Inhibition diameter: -
[1]; [4]
  Inhibition diameter: -
[1]; [5]
  Inhibition diameter: -
[1]; [6]
  Inhibition diameter: -
[1]; [7]
  Inhibition diameter: -
[1]; [8]
  Inhibition diameter: -
[1]; [9]
  Inhibition diameter: -
[1]; [10]
  Inhibition diameter: 7.5 ± 0.3 mm
Micrococcus Luteus; [3]
  Inhibition diameter: -
Micrococcus Luteus; [4]
  Inhibition diameter: -
Micrococcus Luteus; [5]
  Inhibition diameter: -
Micrococcus Luteus; [6]
  Inhibition diameter: -
Micrococcus Luteus; [7]
  Inhibition diameter: 6.4 ± 0.1 mm
Micrococcus Luteus; [8]
  Inhibition diameter: 7.1 ± 0.2 mm
Micrococcus Luteus; [9]
  Inhibition diameter: 7.5 ± 0.1 mm
Micrococcus Luteus; [10]
  Inhibition diameter: 7.8 ± 0.2 mm
[2]
  TTGonset, the onset of the thermal degradation: 149.6 °C
  TDTGmax, maximum decomposition temperature: 293.2 °C
Escherichia coli; [3]
  Inhibition diameter: -
Escherichia coli; [4]
  Inhibition diameter: -
Escherichia coli; [5]
  Inhibition diameter: -
Escherichia coli; [6]
  Inhibition diameter: 6.4 ± 0.3 mm
Escherichia coli; [7]
  Inhibition diameter: 7.1 ± 0.1 mm
Escherichia coli; [8]
  Inhibition diameter: 7.3 ± 0.2 mm
Escherichia coli; [10]
  Inhibition diameter: 7.7 ± 0.2 mm

## CC(C(=O)O)c1cccc(C(=O)c2ccccc2)c1.CSCCC(N)C(=O)OC(C)C (mixture of isomers) [[L-MetOiPr][KETO], L-methionine isopropyl ester ketoprofenate]
[1]; [3]
  Inhibition diameter: -
[1]; [4]
  Inhibition diameter: -
[1]; [5]
  Inhibition diameter: -
[1]; [6]
  Inhibition diameter: -
[1]; [7]
  Inhibition diameter: -
[1]; [8]
  Inhibition diameter: -
[1]; [9]
  Inhibition diameter: -
[1]; [10]
  Inhibition diameter: 7.4 ± 0.2 mm
Micrococcus Luteus; [3]
  Inhibition diameter: -
Micrococcus Luteus; [4]
  Inhibition diameter: 7.2 ± 0.2 mm
Micrococcus Luteus; [5]
  Inhibition diameter: 8.2 ± 0.2 mm
Micrococcus Luteus; [6]
  Inhibition diameter: 8.5 ± 0.3 mm
Micrococcus Luteus; [7]
  Inhibition diameter: 9.2 ± 0.1 mm
Micrococcus Luteus; [8]
  Inhibition diameter: 9.6 ± 0.2 mm
Micrococcus Luteus; [9]
  Inhibition diameter: 12.4 ± 0.2 mm
Micrococcus Luteus; [10]
  Inhibition diameter: 14.3 ± 0.2 mm
Escherichia coli; [3]
  Inhibition diameter: -
Escherichia coli; [4]
  Inhibition diameter: -
Escherichia coli; [5]
  Inhibition diameter: 7.3 ± 0.5 mm
Escherichia coli; [6]
  Inhibition diameter: 8.0 ± 0.6 mm
Escherichia coli; [7]
  Inhibition diameter: 8.9 ± 0.5 mm
Escherichia coli; [8]
  Inhibition diameter: 10.6 ± 0.7 mm
Escherichia coli; [10]
  Inhibition diameter: 12.9 ± 0.4 mm

## COc1ccc2cc([C@H](C)C(=O)O)ccc2c1 [NAP, S-(+)-naproxen, reference compound]
[1]; [3]
  Inhibition diameter: -
[1]; [4]
  Inhibition diameter: -
[1]; [5]
  Inhibition diameter: -
[1]; [6]
  Inhibition diameter: -
[1]; [7]
  Inhibition diameter: -
[1]; [8]
  Inhibition diameter: -
[1]; [9]
  Inhibition diameter: -
[1]; [10]
  Inhibition diameter: -
Micrococcus Luteus; Micrococcus luteus, 24 h, solution transferred to disc 25 mg cm^−3, read-out: Inhibition diameter
  zone of inhibition at 25000 µg/mL: 6.2 ± 0.1 mm
Micrococcus Luteus; Micrococcus luteus, 24 h, solution transferred to disc 50 mg cm^−3, read-out: Inhibition diameter
  zone of inhibition at 50000 µg/mL: 6.4 ± 0.1 mm
Micrococcus Luteus; Micrococcus luteus, 24 h, solution transferred to disc 100 mg cm^−3, read-out: Inhibition diameter
  zone of inhibition at 100000 µg/mL: 6.7 ± 0.1 mm
Micrococcus Luteus; Micrococcus luteus, 24 h, solution transferred to disc 200 mg cm^−3, read-out: Inhibition diameter
  zone of inhibition at 200000 µg/mL: 6.8 ± 0.1 mm
Micrococcus Luteus; Micrococcus luteus, 24 h, solution transferred to disc 400 mg cm^−3, read-out: Inhibition diameter
  zone of inhibition at 400000 µg/mL: 7.3 ± 0.2 mm
Micrococcus Luteus; Micrococcus luteus, 24 h, solution transferred to disc 600 mg cm^−3, read-out: Inhibition diameter
  zone of inhibition at 600000 µg/mL: 7.6 ± 0.2 mm
Micrococcus Luteus; Micrococcus luteus, 24 h, solution transferred to disc 800 mg cm^−3, read-out: Inhibition diameter
  zone of inhibition at 800000 µg/mL: 8.5 ± 0.2 mm
[2]
  TTGonset, the onset of the thermal degradation: 224.5 °C
  TDTGmax, maximum decomposition temperature: 284.0 °C
Escherichia coli; [3]
  Inhibition diameter: -
Escherichia coli; [4]
  Inhibition diameter: -
Escherichia coli; [5]
  Inhibition diameter: -
Escherichia coli; [6]
  Inhibition diameter: -
Escherichia coli; [7]
  Inhibition diameter: -
Escherichia coli; [8]
  Inhibition diameter: -
Escherichia coli; [10]
  Inhibition diameter: -

## CC(C(=O)O)c1cccc(C(=O)c2ccccc2)c1.CC[C@H](C)[C@H](N)C(=O)OC(C)C [[L-IleOiPr][KETO], L-isoleucine isopropyl ester ketoprofenate]
[1]; [3]
  Inhibition diameter: -
[1]; [4]
  Inhibition diameter: -
[1]; [5]
  Inhibition diameter: -
[1]; [6]
  Inhibition diameter: -
[1]; [7]
  Inhibition diameter: 6.2 ± 0.1 mm
[1]; [8]
  Inhibition diameter: 7.3 ± 0.2 mm
[1]; [9]
  Inhibition diameter: 8.3 ± 0.1 mm
[1]; [10]
  Inhibition diameter: 10.4 ± 0.2 mm
Micrococcus Luteus; [3]
  Inhibition diameter: -
Micrococcus Luteus; [4]
  Inhibition diameter: 6.3 ± 0.2 mm
Micrococcus Luteus; [5]
  Inhibition diameter: 6.6 ± 0.3 mm
Micrococcus Luteus; [6]
  Inhibition diameter: 7.1 ± 0.2 mm
Micrococcus Luteus; [7]
  Inhibition diameter: 7.3 ± 0.1 mm
Micrococcus Luteus; [8]
  Inhibition diameter: 8.3 ± 0.2 mm
Micrococcus Luteus; [9]
  Inhibition diameter: 8.4 ± 0.3 mm
Micrococcus Luteus; [10]
  Inhibition diameter: 9.4 ± 0.2 mm
Escherichia coli; [3]
  Inhibition diameter: -
Escherichia coli; [4]
  Inhibition diameter: -
Escherichia coli; [5]
  Inhibition diameter: -
Escherichia coli; [6]
  Inhibition diameter: -
Escherichia coli; [7]
  Inhibition diameter: -
Escherichia coli; [8]
  Inhibition diameter: -
Escherichia coli; [10]
  Inhibition diameter: -

## CC(C(=O)O)c1cccc(C(=O)c2ccccc2)c1.CC(C)OC(=O)C(N)C(C)O (mixture of isomers) [[L-ThrOiPr][KETO], L-threonine isopropyl ester ketoprofenate]
[1]
  inhibition zone (in words): no inhibition zone was observed
[1]; [3]
  Inhibition diameter: -
[1]; [4]
  Inhibition diameter: -
[1]; [5]
  Inhibition diameter: -
[1]; [6]
  Inhibition diameter: -
[1]; [7]
  Inhibition diameter: -
[1]; [8]
  Inhibition diameter: -
[1]; [9]
  Inhibition diameter: -
[1]; [10]
  Inhibition diameter: -
Micrococcus Luteus; [3]
  Inhibition diameter: -
Micrococcus Luteus; [4]
  Inhibition diameter: -
Micrococcus Luteus; [5]
  Inhibition diameter: -
Micrococcus Luteus; [6]
  Inhibition diameter: 7.4 ± 0.3 mm
Micrococcus Luteus; [7]
  Inhibition diameter: 9.6 ± 0.1 mm
Micrococcus Luteus; [8]
  Inhibition diameter: 14.3 ± 0.2 mm
Micrococcus Luteus; [9]
  Inhibition diameter: 15.4 ± 0.2 mm
Micrococcus Luteus; [10]
  Inhibition diameter: 17.4 ± 0.1 mm
Escherichia coli; [3]
  Inhibition diameter: -
Escherichia coli; [4]
  Inhibition diameter: -
Escherichia coli; [5]
  Inhibition diameter: -
Escherichia coli; [6]
  Inhibition diameter: -
Escherichia coli; [7]
  Inhibition diameter: -
Escherichia coli; [8]
  Inhibition diameter: -
Escherichia coli; [10]
  Inhibition diameter: -

## CC(C)OC(=O)[C@@H](N)[C@@H](C)O.COc1ccc2cc([C@H](C)C(=O)O)ccc2c1 [[L-ThrOiPr][NAP], L-threonine isopropyl ester naproxenate]
[1]
  inhibition zone (in words): no inhibition zone was observed
[1]; [3]
  Inhibition diameter: -
[1]; [4]
  Inhibition diameter: -
[1]; [5]
  Inhibition diameter: -
[1]; [6]
  Inhibition diameter: -
[1]; [7]
  Inhibition diameter: -
[1]; [8]
  Inhibition diameter: -
[1]; [9]
  Inhibition diameter: -
[1]; [10]
  Inhibition diameter: -
Micrococcus Luteus; [3]
  Inhibition diameter: 6.2 ± 0.1 mm
Micrococcus Luteus; [4]
  Inhibition diameter: 6.6 ± 0.1 mm
Micrococcus Luteus; [5]
  Inhibition diameter: 6.9 ± 0.1 mm
Micrococcus Luteus; [6]
  Inhibition diameter: 7.6 ± 0.1 mm
Micrococcus Luteus; [7]
  Inhibition diameter: 8.5 ± 0.1 mm
Micrococcus Luteus; [8]
  Inhibition diameter: 8.8 ± 0.2 mm
Micrococcus Luteus; [9]
  Inhibition diameter: 9.6 ± 0.1 mm
Micrococcus Luteus; [10]
  Inhibition diameter: 10.8 ± 0.5 mm
[2]
  TTGonset, the onset of the thermal degradation: 145.8 °C
  TDTGmax, maximum decomposition temperature: 295.3 °C
Escherichia coli; [3]
  Inhibition diameter: -
Escherichia coli; [4]
  Inhibition diameter: -
Escherichia coli; [5]
  Inhibition diameter: -
Escherichia coli; [6]
  Inhibition diameter: -
Escherichia coli; [7]
  Inhibition diameter: -
Escherichia coli; [8]
  Inhibition diameter: -
Escherichia coli; [10]
  Inhibition diameter: -
